In patent publication US10280164B2, “Pyrazolopyridone compounds and uses thereof” (Incyte Corporation, priority 2016, dated 2019):
pKi: −log10 of the molar value.

Each molecule was assayed against HPK1 (Homo sapiens (Human), UniProt Q92918) (assay: HPK1 Kinase Binding Assay (LanthaScreen Eu-Anti GST antibody / tracer 222)). Settings: active HPK1 (SignalChem M23-11G), tracer 222, one hour incubation at 25° C.
Protocol: A stock solution of 1 mM test compound was prepared in DMSO. The compound plate was prepared by 3-fold and 11-point serial dilutions. 0.1 μL of the compound in DMSO was transferred from the compound plate to the white 384 well polystyrene plates. The assay buffer contained 50 mM HEPES, pH 7.5, 0.01% Tween-20, 5 mM MgCl2, 0.01% BSA, and 5 mM DTT. 5 μl of 4 nM active HPK1 (SignalChem M23-11G) prepared in the buffer was added to the plate. The enzyme concentration given was based on the given stock concentration reported by the vender. 5 μl of 18 nM tracer 222 (ThermoFisher PV6121) and 4 nM LanthaScreen Eu-Anti GST antibody (ThermoFisher PV5595) were added. After one hour incubation at 25° C., the plates were read on a PHERAstar FS plate reader (BMG Labtech). Ki values were determined.

Chain of HPK1 (Q92918 1-346): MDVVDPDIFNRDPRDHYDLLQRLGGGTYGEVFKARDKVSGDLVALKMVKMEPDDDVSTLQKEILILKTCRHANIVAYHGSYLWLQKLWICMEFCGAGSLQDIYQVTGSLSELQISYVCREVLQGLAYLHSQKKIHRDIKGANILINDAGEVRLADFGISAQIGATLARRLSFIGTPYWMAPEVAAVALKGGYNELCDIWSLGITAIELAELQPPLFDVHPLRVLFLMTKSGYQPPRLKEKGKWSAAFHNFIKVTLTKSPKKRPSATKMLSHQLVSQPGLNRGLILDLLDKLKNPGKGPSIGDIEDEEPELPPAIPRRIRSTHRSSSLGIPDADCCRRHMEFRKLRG

pKi | Structure (SMILES)
6.30 to 7.00 | CN1CCN(c2ccc(-c3n[nH]c4cc(=O)n(-c5ccccc5)cc34)cc2)CC1 [Example 1, 3-[4-(4-Methylpiperazin-1-yl)phenyl]-5-phenyl-1,5-dihydro-6H-pyrazolo[4,3-c]pyridin-6-one]
≥ 7.00 | CN1CCN(c2ccc(-c3n[nH]c4cc(=O)n(-c5ccccc5F)cc34)cc2)CC1 [Example 2, 5-(2-Fluorophenyl)-3-[4-(4-methylpiperazin-1-yl)phenyl]-1,5-dihydro-6H-pyrazolo[4,3-c]pyridin-6-one]
≥ 7.00 | Cc1ccccc1-n1cc2c(-c3ccc(N4CCN(C)CC4)cc3)n[nH]c2cc1=O [Example 3, 3-[4-(4-Methylpiperazin-1-yl)phenyl]-5-(o-tolyl)-1,5-dihydro-6H-pyrazolo[4,3-c]pyridin-6-one]
≥ 7.00 | COc1ccccc1-n1cc2c(-c3ccc(N4CCN(C)CC4)cc3)n[nH]c2cc1=O [Example 4, 5-(2-Methoxyphenyl)-3-[4-(4-methylpiperazin-1-yl)phenyl]-1,5-dihydro-6H-pyrazolo[4,3-c]pyridin-6-one]
≥ 7.00 | COc1cccc(F)c1-n1cc2c(-c3ccc(N4CCN(C)CC4)cc3)n[nH]c2cc1=O [Example 5, 5-(2-Fluoro-6-methoxyphenyl)-3-[4-(4-methylpiperazin-1-yl)phenyl]-1,5-dihydro-6H-pyrazolo[4,3-c]pyridin-6-one]
≥ 7.00 | CN1CCN(c2ccc(-c3n[nH]c4cc(=O)n(-c5cccc6c5CCNC6)cc34)cc2)CC1 [Example 6, 3-[4-(4-Methylpiperazin-1-yl)phenyl]-5-(1,2,3,4-tetrahydroisoquinolin-5-yl)-1,5-dihydro-6H-pyrazolo[4,3-c]pyridin-6-one]
≥ 7.00 | CN1CCN(c2ccc(-c3n[nH]c4cc(=O)n(-c5cccc6c5OCCO6)cc34)cc2)CC1 [Example 7, 5-(2,3-Dihydrobenzo[b][1,4]dioxin-5-yl)-3-[4-(4-methylpiperazin-1-yl)phenyl]-1,5-dihydro-6H-pyrazolo[4,3-c]pyridin-6-one]
≥ 7.00 | CN1CCN(c2ccc(-c3n[nH]c4cc(=O)n(-c5ncccc5F)cc34)cc2)CC1 [Example 8, 5-(3-Fluoropyridin-2-yl)-3-[4-(4-methylpiperazin-1-yl)phenyl]-1,5-dihydro-6H-pyrazolo[4,3-c]pyridin-6-one]
6.30 to 7.00 | CN1CCN(c2ccc(-c3n[nH]c4cc(=O)n(C5CCCCC5)cc34)cc2)CC1 [Example 9, 5-Cyclohexyl-3-[4-(4-methylpiperazin-1-yl)phenyl]-1,5-dihydro-6H-pyrazolo[4,3-c]pyridin-6-one]
5.52 to 6.30 | CN1CCN(c2ccc(-c3n[nH]c4cc(=O)n(C5CCOC5)cc34)cc2)CC1 (stereo not shown) [Example 10, 3-[4-(4-Methylpiperazin-1-yl)phenyl]-5-(tetrahydrofuran-3-yl)-1,5-dihydro-6H-pyrazolo[4,3-c]pyridin-6-one]
6.30 to 7.00 | CN1CCN(c2ccc(-c3n[nH]c4cc(=O)n(Cc5ccccc5)cc34)cc2)CC1 [Example 11, 5-Benzyl-3-[4-(4-methylpiperazin-1-yl)phenyl]-1,5-dihydro-6H-pyrazolo[4,3-c]pyridin-6-one]
6.30 to 7.00 | CN1CCN(c2ccc(-c3n[nH]c4cc(=O)n(CC5CCCCC5)cc34)cc2)CC1 [Example 12, 5-(Cyclohexylmethyl)-3-[4-(4-methylpiperazin-1-yl)phenyl]-1,5-dihydro-6H-pyrazolo[4,3-c]pyridin-6-one]
≥ 7.00 | CC(c1ccccc1C(F)(F)F)n1cc2c(-c3ccc(N4CCN(C)CC4)cc3)n[nH]c2cc1=O (stereo not shown) [Example 13, 3-[4-(4-Methylpiperazin-1-yl)phenyl]-5-{1-[2-(trifluoromethyl)phenyl]ethyl}-1,5-dihydro-6H-pyrazolo[4,3-c]pyridin-6-one]
≥ 7.00 | CC(c1ccccc1)n1cc2c(-c3ccc(N4CCN(C)CC4)cc3)n[nH]c2cc1=O (stereo not shown) [Example 14, 3-[4-(4-Methylpiperazin-1-yl)phenyl]-5-(1-phenylethyl)-1,5-dihydro-6H-pyrazolo[4,3-c]pyridin-6-one]
5.52 to 6.30 | CN1CCN(c2ccc(-c3n[nH]c4cc(=O)n(C5CCN(C)C5=O)cc34)cc2)CC1 (stereo not shown) [Example 15, 5-(1-Methyl-2-oxopyrrolidin-3-yl)-3-[4-(4-methylpiperazin-1-yl)phenyl]-1,5-dihydro-6H-pyrazolo[4,3-c]pyridin-6-one]
6.30 to 7.00 | CC1OCCCC1n1cc2c(-c3ccc(N4CCN(C)CC4)cc3)n[nH]c2cc1=O (stereo not shown) [Example 16, 3-[4-(4-Methylpiperazin-1-yl)phenyl]-5-(2-methyltetrahydro-2H-pyran-3-yl)-1,5-dihydro-6H-pyrazolo[4,3-c]pyridin-6-one]
